According to a melting point compilation (Tetko et al.; mined from patent text by program, amines drawn as free bases though some values may be those of a salt):

| SMILES | melting point [°C] |
| --- | --- |
| CC1CCN(c2cc(F)cc(C(=O)Nc3ccc(OCc4n[nH]c(=O)n4-c4ccccc4)c4ccccc34)c2)CC1 | 140 to 143 |
| N#Cc1ccc2c(c1)C(O)CCCO2 (stereo not drawn) | 85 to 86.5 |
| NS(=O)(=O)OCCOS(N)(=O)=O | 98.5 to 101 |
| CCOC(=O)C=Cc1ccn(C)c(=O)c1 | 126 to 127 |
| Cc1cc(C)c(-c2c(OCOCC(C)C)oc(-c3ccsc3)c(C)c2=O)c(C)c1 | 102 to 104 |
| Nc1ccc(C(=O)O)c2ccccc12 | 169 to 171 |
| COCc1c[nH]c2c([N+](=O)[O-])cc(C)cc2c1=O | > 240 |
| CCCCC1=NC2(CCCC2)C(=O)N1Cc1ccc(-c2ccccc2S(=O)(=O)Nc2noc(C)c2C)c(COCCF)c1 | 68 to 73 |
| O=C(COc1ccc(Cl)cc1)N1CC2COCC2C1 (stereo not drawn) | 110 |
| COCC(=O)NC(CC(=O)Nc1n[nH]c(=S)s1)c1ccccc1 (stereo not drawn) | 241 to 242 |
| COc1ccc(C2(O)CCNCC2)cc1 | 120 to 122 |
| Cc1cc(Br)c(Cl)c(Cl)c1N | 66 to 68 |
| COc1cc(-c2cccc(Cl)c2)c2cc(C(O)(c3ccc(Cl)cc3)c3nnc(S)n3C)ccc2n1 (stereo not drawn) | > 260 |
| COc1ccc(N2CCN(C(=O)C(C)(C)C3OCCc4ccccc43)CC2)cc1 (stereo not drawn) | 120 to 121 |
| O=C(O)c1cc(-c2ccc(Cl)cc2)n(-c2ccc(Cl)cc2Cl)n1 | 185 |
| CCOC(=O)c1ncn2c1CN(C)C(=O)c1c-2cccc1[N+](=O)[O-] | 212 to 213 |
| COc1ccc(OC)c(C=C2NC(=O)NC2=O)c1 | 250 to 252 |
| CCCCCc1ccc(-c2ccc(C3CCC(=O)O3)cc2)cc1 (single isomer, unassigned) | 98.8 |
| Cc1ccc(Cl)c2[nH]c(=O)oc(=O)c12 | 248 to 250 |
| COc1ccc(C2CNCc3c(C)cccc32)cc1OC (stereo not drawn) | 86 to 88 |
| Cc1cc(CN(Cc2cccs2)c2sc(-c3ccc(C(F)(F)F)cc3)nc2C)ccc1OC(C)(C)C(=O)O | 100 |
| CCCCc1[nH]c2ccc([N+](=O)[O-])cc2c1C(=O)c1ccc(OCCCN(CCCC)CCCC)cc1 | 116 |

| SMILES | melting point [°C] |
| --- | --- |
| Cc1ccc(-c2nc3ccc(N4C[C@H]5CN(C)C[C@H]5C4)nn3c2-c2ccncc2)o1 | 178 to 181 |
| CCOC(=O)CNc1ccc(C2=NNC(=O)NC2C)cc1 (stereo not drawn) | 180 to 182 |
| CC(=O)OCN=C(O)c1cc(C(O)=NCOC(C)=O)c(C(=O)O)cc1C(=O)O | 237 to 238 |
| C=C(Cl)CN1C(=O)c2ccccc2Oc2ncccc21 | 106 to 108 |
| CCOCc1nc2c(N)nc3cccnc3c2n1CCCC(C)N(OC)C(=O)NC(C)C (stereo not drawn) | 174 to 175 |
| OCCCCNC1CCCCC1 | 48 to 50 |
| O=C(N[C@H]1CCCNC1=O)c1ccccc1F | 166 to 168 |
| Cc1ccnc(C(=O)c2[nH]c3cc(Cl)c(Cl)cc3c2CC(=O)O)c1 | 220 to 224 |
| CCOC(=O)C(C)=Cc1cn(-c2cccnc2)c2ccccc12 | 97 to 99 |
| Cc1nnc(-c2ccc3occ(-c4ccccn4)c3c2)o1 | 148 to 149 |
| O=C1c2cccc(NC(=S)Nc3cnccn3)c2C2CCCCN12 (stereo not drawn) | 204 |
| CCn1c2c(c3ccccc31)=CC(=C1c3ccccc3-c3ccccc31)CC=2 | 172 |
| O=S1(=O)C(CN2CCCCC2)=Cc2ccc(Cl)cc21 | 154 to 156 |
| COc1ccc2c(c1)Sc1ccccc1CN2C=O | 98 to 100 |
| CCc1oc(-c2ccc(C(F)(F)F)cc2)cc1CCC(=O)O | 94 to 95 |
| O=C(Nc1ccnnc1)NC1CCCCCC1 | 226 to 228 |
| CC(C)(C)c1ccccc1COc1ccc(N)cn1 | 147 to 149 |
| C=CS(=O)(=O)c1ccc(C(=O)O)cc1 | 228 |
| Cc1cc2ccccn2c1C(=O)C1CCc2nc[nH]c2C1 (stereo not drawn) | 260 to 264 |
| C=CCS(=O)CCNC(N)=O (stereo not drawn) | 66 |
| O=CC1c2ccccc2C(C=O)c2cc(Cl)ccc21 (stereo not drawn) | 113 to 115 |
